Test results from patent US20240189331A1, “NOVEL […] FILM FORMULATION” (INTELGENX CORP., priority 2021, published 2024).
Entries after “also recorded” stand apart in the source; their conditions may differ.

What was measured:
[1] = In vitro permeability study in 6 station Franz diffusion cell apparatus using porcine buccal mucosa; settings: for effect of acidifying agent in film formulation on permeation of psilocybin through pig mucosa membrane: psilocybin around its isoelectric point (pH=3.9)
[2] = cited from earlier work
[3] = administered orally; cited from earlier work

O=C(O)CC(O)(CC(=O)O)C(=O)O [citric acid]
effect of acidifying agent in film formulation on permeation of psilocybin through pig mucosa membrane [1]: triggers permeation

O=P(O)(O)O [phosphoric acid]
effect of acidifying agent in film formulation on permeation of psilocybin through pig mucosa membrane [1]: triggers permeation

CN(C)CCc1c[nH]c2cccc(OP(=O)(O)O)c12 [psilocybin, [3-(2-Dimethylaminoethyl)-1H-indol-4-yl]dihydrogen phosphate]
pka1 ([2]; first phosphate oxygen): 1.3
pka2 ([2]; second phosphate oxygen): 6.5
pka3 ([2]; tertiary amine group): 10.4
drug absorbed into the bloodstream [3]: about 50%
time of maximum plasma concentration [3]: approximately 80 minutes

Benzalkonium chloride [Benzalkonium chloride (BKC)]
effect of penetration enhancer on psilocybin diffusion through porcine buccal mucosa ([1]; penetration enhancer in psilocybin film formulation, FIG. 4 and FIG. 5): improved buccal permeation; also recorded: significate increase
